Experimental data from patent US5296493A, “1-substituted-2-(N-pheny l-N-(phenylmethyl)methanamine)-4,5-dihydro-imidazoles and related compounds and their use in treating calcium overload in brain cells” (NeuroSearch A/S, priority 1991, dated 1994).
Where a name gives a salt, the structure may show the parent alone.

Test system: voltage operated calcium channels
Test: Inhibition of potassium (depolarization) stimulated 45Ca uptake into rat cerebral cortex synaptosomes
Assay type: biochemical, male Wistar rat
Details: concentration inhibiting 20% of potassium stimulated 45Ca uptake, corrected for basal uptake, 145 mM KCl, 15 seconds, 37° C.
Excerpt: A high influx of calcium from extracelluar compartments into neurons is seen after opening of voltage operated calcium channels. Such opening of calcium channels may be induced by depolarization of neuronal membranes.
A crude synaptosome preparation contains small vesicles surrounded by neuronal membranes, and it is possible to study an opening of the voltage operated calcium channels in such a preparation.
In the below described test influx of ^45 Ca into synaptosomes is studied under depolarized conditions. The effect of test substances on the depolarization induced calcium uptake can thus be studied.
The cerebral cortex from a male Wistar rat is homogenized in 20 ml ice cold 0.32M saccharose. In the following steps the temperature is kept at 0° C. to 4° C. The homogenate is centrifuged at 1,000×g for 10 minutes and the supernatant recentrifuged for 20 minutes at 18,000×g. […]
The ^45 Ca uptake is stopped by filtering through glass fibre filters, which are subsequently washed 3 times with an ice cold solution of 145 mM KCl, 7 mM EGTA and 20 mM Tris HCl, pH 7.4 (5. ml). The radioactivity on the filters are measured by liquid scintillation spectrometry. […]
The test value is given as IC20, that is the concentration in μM of the test substances, which inhibit 20% of the potassium stimulated uptake of ^45 Ca. […] The IC20 value is determined from a dose response curve.

| Compound | IC20 [nM] |
| --- | --- |
| c1ccc(CN2CCN=C2CN(Cc2ccccc2)c2ccccc2)cc1 [1-benzyl-2-(N-phenyl-N-benzyl-methanamine)-4,5-dihydro-imidazole, hydrochloride] | 400 |
| O=C(c1ccccc1)C(c1ccccc1)N1CCN=C1CN(Cc1ccccc1)c1ccccc1 (stereo not drawn) [1-(α-Benzoylbenzyl)-2-(N-phenyl-N-(benzyl)-methanamine)-4,5-dihydro-imidazole] | 400 |
